Measured values: the supplement of paper PMC7214452

What was measured:
Assay in all cases: normalized area under the dose-response curve (viability relative to DMSO control) (fraction); higher = less sensitive (more viable cells)
Details in all cases: exposure time not given
AMO1 (cancer type: MM) = test system: AMO1 (cancer type: MM)
Method: (§1)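 25 myeloma and 15 non-Hodgkin lymphoma cell lines were exposed to each of 76 drugs as 7-point log dilutions (0.01 nM–10 µM) in duplicate. Viability was read with CellTiter-Glo and normalised to DMSO (0.1%) and staurosporine (10 µM) plate controls. Normalised AUC was calculated by the trapezoidal method relative to the negative control.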

EJM (cancer type: MM) = test system: EJM (cancer type: MM)
Method: as §1

FR4 (cancer type: MM) = test system: FR4 (cancer type: MM)
Method: as §1

[1] = test system: Granta-519 (cancer type: Mantle)
Method: as §1

[2] = test system: HuT 78 (cancer type: TCL)
Method: as §1

JJN3 (cancer type: MM) = test system: JJN3 (cancer type: MM)
Method: as §1

[3] = test system: JVM2 (cancer type: Mantle)
Method: as §1

[4] = test system: JeKo-1 (cancer type: Mantle)
Method: as §1

KMS11 (cancer type: MM) = test system: KMS11 (cancer type: MM)
Method: as §1

[5] = test system: KMS12PE (cancer type: MM)
Method: as §1

KMS18 (cancer type: MM) = test system: KMS18 (cancer type: MM)
Method: as §1

KMS26 (cancer type: MM) = test system: KMS26 (cancer type: MM)
Method: as §1

[6] = test system: KMS28BM (cancer type: MM)
Method: as §1

[7] = test system: KMS28PE (cancer type: MM)
Method: as §1

KMS34 (cancer type: MM) = test system: KMS34 (cancer type: MM)
Method: as §1

[8] = test system: Karpas-299 (cancer type: TCL)
Method: as §1

L363 (cancer type: MM) = test system: L363 (cancer type: MM)
Method: as §1

LP1 (cancer type: MM) = test system: LP1 (cancer type: MM)
Method: as §1

MM1.R (cancer type: MM) = test system: MM1.R (cancer type: MM)
Method: as §1

MM1.S (cancer type: MM) = test system: MM1.S (cancer type: MM)
Method: as §1

[9] = test system: Mino (cancer type: Mantle)
Method: as §1

My-La (cancer type: TCL) = test system: My-La (cancer type: TCL)
Method: as §1

[10] = test system: NCI-H929 (cancer type: MM)
Method: as §1

[11] = test system: OCI-LY1 (cancer type: DLBCL)
Method: as §1

[12] = test system: OCI-LY19 (cancer type: DLBCL)
Method: as §1

[13] = test system: OCI-LY3 (cancer type: DLBCL)
Method: as §1

[14] = test system: OCI-MY5 (cancer type: MM)
Method: as §1

[15] = test system: OCI-MY5/CRBN (cancer type: MM)
Method: as §1

[16] = test system: OCI-MY5/Vec (cancer type: MM)
Method: as §1

[17] = test system: OCI-MY7 (cancer type: MM)
Method: as §1

OPM2 (cancer type: MM) = test system: OPM2 (cancer type: MM)
Method: as §1

[18] = test system: RPMI 8226 (cancer type: MM)
Method: as §1

SKMM2 (cancer type: MM) = test system: SKMM2 (cancer type: MM)
Method: as §1

[19] = test system: SR-786 (cancer type: TCL)
Method: as §1

[20] = test system: SU-DHL1 (cancer type: TCL)
Method: as §1

[21] = test system: SU-DHL2 (cancer type: DLBCL)
Method: as §1

[22] = test system: SU-DHL6 (cancer type: DLBCL)
Method: as §1

Se-Ax (cancer type: TCL) = test system: Se-Ax (cancer type: TCL)
Method: as §1

U266 (cancer type: MM) = test system: U266 (cancer type: MM)
Method: as §1

XG2 (cancer type: MM) = test system: XG2 (cancer type: MM)
Method: as §1

Row | Compound | normalized area under the dose-response curve (AMO1 (cancer type: MM)) | normalized area under the dose-response curve (EJM (cancer type: MM)) | normalized area under the dose-response curve (FR4 (cancer type: MM)) | normalized area under the dose-response curve [1] | normalized area under the dose-response curve [2] | normalized area under the dose-response curve (JJN3 (cancer type: MM)) | normalized area under the dose-response curve [3] | normalized area under the dose-response curve [4] | normalized area under the dose-response curve (KMS11 (cancer type: MM)) | normalized area under the dose-response curve [5] | normalized area under the dose-response curve (KMS18 (cancer type: MM)) | normalized area under the dose-response curve (KMS26 (cancer type: MM)) | normalized area under the dose-response curve [6] | normalized area under the dose-response curve [7] | normalized area under the dose-response curve (KMS34 (cancer type: MM)) | normalized area under the dose-response curve [8] | normalized area under the dose-response curve (L363 (cancer type: MM)) | normalized area under the dose-response curve (LP1 (cancer type: MM)) | normalized area under the dose-response curve (MM1.R (cancer type: MM)) | normalized area under the dose-response curve (MM1.S (cancer type: MM)) | normalized area under the dose-response curve [9] | normalized area under the dose-response curve (My-La (cancer type: TCL)) | normalized area under the dose-response curve [10] | normalized area under the dose-response curve [11] | normalized area under the dose-response curve [12] | normalized area under the dose-response curve [13] | normalized area under the dose-response curve [14] | normalized area under the dose-response curve [15] | normalized area under the dose-response curve [16] | normalized area under the dose-response curve [17] | normalized area under the dose-response curve (OPM2 (cancer type: MM)) | normalized area under the dose-response curve [18] | normalized area under the dose-response curve (SKMM2 (cancer type: MM)) | normalized area under the dose-response curve [19] | normalized area under the dose-response curve [20] | normalized area under the dose-response curve [21] | normalized area under the dose-response curve [22] | normalized area under the dose-response curve (Se-Ax (cancer type: TCL)) | normalized area under the dose-response curve (U266 (cancer type: MM)) | normalized area under the dose-response curve (XG2 (cancer type: MM))
1 | CC(=O)Nc1cccc(-n2c(=O)n(C3CC3)c(=O)c3c(Nc4ccc(I)cc4F)n(C)c(=O)c(C)c32)c1 [Trametinib] | 0.575 | 0.838 | 0.967 | 0.913 | 0.672 | 0.858 | 0.561 | 0.986 | 0.869 | 0.8 | 0.779 | 0.774 | 0.861 | 0.867 | 0.681 | 0.794 | 0.835 | 0.64 | 0.67 | 0.71 | 0.948 | 0.868 | 0.6 | 0.908 | 0.898 | 0.865 | 0.764 | 0.969 | 0.943 | 0.67 | 0.719 | 0.909 | 0.964 | 0.877 | 0.501 | 0.77 | 0.841 | 0.713 | 0.922 | 0.727
2 | COc1cc2/c(=N/c3ccc(Br)cc3F)nc[nH]c2cc1OCC1CCN(C)CC1 [Vandetanib] | 0.767 | 0.672 | 0.922 | 0.892 | 0.892 | 0.873 | 0.773 | 0.937 | 0.777 | 0.95 | 0.774 | 0.962 | 0.985 | 0.844 | 0.623 | 0.896 | 0.795 | 0.684 | 0.87 | 0.86 | 0.921 | 0.906 | 0.87 | 0.918 | 0.969 | 0.993 | 0.784 | 0.95 | 0.908 | 0.96 | 0.861 | 0.905 | 0.963 | 0.961 | 0.77 | 0.911 | 0.96 | 0.784 | 0.746 | 0.726
3 | CCCS(=O)(=O)Nc1ccc(F)c(C(=O)c2c[nH]c3ncc(-c4ccc(Cl)cc4)cc23)c1F [Vemurafenib] | 0.808 | 0.902 | 0.825 | 0.957 | 0.964 | 0.784 | 0.924 | 0.971 | 0.909 | 0.91 | 0.938 | 0.965 | 1.28 | 0.998 | 0.765 | 0.969 | 0.898 | 0.89 | 0.97 | 0.95 | 0.917 | 0.976 | 0.79 | 0.933 | 0.912 | 0.951 | 0.788 | 0.958 | 0.998 | 0.94 | 0.936 | 0.975 | 0.994 | 0.98 | 0.867 | 0.972 | 0.92 | 0.673 | 0.8 | 1
4 | CC1(C)CCC(CN2CCN(c3ccc(C(=O)NS(=O)(=O)c4ccc(NCC5CCOCC5)c([N+](=O)[O-])c4)c(Oc4cnc5[nH]ccc5c4)c3)CC2)=C(c2ccc(Cl)cc2)C1 [Venetoclax] | 0.64 | 0.615 | 0.617 | 0.212 | 0.752 | 0.354 | 0.73 | 0.686 | 0.591 | 0.09 | 0.514 | 0.919 | 0.119 | 0.251 | 0.525 | 0.829 | 0.584 | 0.817 | 0.48 | 0.57 | 0.876 | 0.872 | 0.82 | 0.176 | 0.247 | 0.179 | 0.101 | 0.0571 | 0.0321 | 0.14 | 0.371 | 0.481 | 0.0382 | 0.952 | 0.696 | 0.982 | 0.0483 | 0.196 | 0.366 | 0.846
5 | CS(=O)(=O)c1ccc(C(=O)Nc2ccc(Cl)c(-c3ccccn3)c2)c(Cl)c1 [Vismodegib] | 0.871 | 0.901 | 1.02 | 0.924 | 0.9 | 0.906 | 0.819 | 0.878 | 0.93 | 0.94 | 0.995 | 0.838 | 0.948 | 0.871 | 0.801 | 0.895 | 0.859 | 0.906 | 0.88 | 0.85 | 0.911 | 0.873 | 0.87 | 0.967 | 0.827 | 0.939 | 0.826 | 0.942 | 0.922 | 0.94 | 0.932 | 0.889 | 1.01 | 0.858 | 0.807 | 0.94 | 0.864 | 0.765 | 0.896 | 0.867
6 | O=C(CCCCCCC(=O)Nc1ccccc1)NO [Vorinostat] | 0.482 | 0.607 | 0.521 | 0.717 | 0.43 | 0.649 | 0.598 | 0.421 | 0.627 | 0.63 | 0.855 | 0.551 | 0.56 | 0.542 | 0.554 | 0.426 | 0.635 | 0.637 | 0.55 | 0.46 | 0.449 | 0.672 | 0.35 | 0.432 | 0.443 | 0.469 | 0.4 | 0.517 | 0.427 | 0.51 | 0.767 | 0.721 | 0.781 | 0.533 | 0.519 | 0.528 | 0.672 | 0.331 | 0.738 | 0.692
